Tested on: Salmonella Newport
Assay: Biofilm formation on food contact surface coupons, direct plating
Assay type: cell-based, Salmonella enterica
Details: two-minute treatment
Procedure: A protocol based on direct plating was also evaluated for testing the biofilm formation by Salmonella or L. monocytogenes. Biofilms were formed on three different food contact surface coupons (HDPE, Buna-N rubber, and 316 stainless steel) for up to 3 days in 35 mm mini-petri dishes. Biofilms were formed using a 1:10 diluted TSB solution (10 mL) with either S. enterica or L. monocytogenes inoculum (100 μL). The diluted TSB was changed every 16-18 hours with new 1:10 diluted TSB (10 mL). Coupons were removed for sampling and enumeration of strongly attached bacteria at three different time points (Day 0, 1, and 3). The coupons were rinsed with deionized water five times to remove planktonic cells. Then the coupons were immersed in 10 mL of BPW. The coupons were sonicated for 2 minutes using different settings (Tables 11 and 12) for each organism. After sonication, the solution was serially diluted and plated on Tryptic Soy Agar (TSA). Plates were incubated at 37° C. for 24-48 hours. The colonies were counted and the colony forming units were determined for the various sonication settings, so that the appropriate setting with the most recovery could be determined. […] These settings were used in further experiments to recover the bacterial cells from coupons during sampling and enumeration (by spread plating) of the bacteria in biofilms.
The reduction in bacterial biofilm formation was also tested using a direct plating method. Biofilms were formed on six different food contact surface coupons (HDPE, Buna-N rubber, PC, PVC, and stainless steel 304 and 316) in separate 35 mm mini-petri dishes and evaluated at three different time points (Day 0, 1, and 3). Biofilms were formed using a 1:10 diluted TSB solution (10 mL) with either S. enterica or L. monocytogenes inoculum (100 μL). The coupons were also washed and treated with antimicrobial solutions containing the plant-based emulsifier and the essential oil/plant extracts at various concentrations. The diluted TSB was changed every 16-18 hours with new 1:10 diluted TSB (10 mL). The coupons were rinsed in the antimicrobial solution before adding them to the petri dishes containing the fresh, diluted TSB. After their specific time points, coupons were removed aseptically using sterile forceps from the petri dish. The coupons were rinsed by submerging in 25 mL of sterile deionized H2O and swirled five times to remove planktonic cells. After rinsing, they were placed into a new petri dish immersed in 10 mL of BPW. The coupons were sonicated for 2 minutes on ice using different settings for each organism. After sonication, the sonicated solution was serially diluted using 0.1% peptone water and spread plated on TSA in duplicate. Plates were incubated overnight at 37° C. for 24-48 hours, after which, the colonies were counted, to establish the efficacy of the antimicrobial solutions (Tables 17-25).

O=CC=Cc1ccccc1 [Cinnamaldehyde, cinnamaldehyde]
Survivors of Salmonella Newport on food contact surface (0.5% with 0.0001% saponin microemulsion, Day 0, 304 SS): 4.31 Log CFU/mL | Survivors of Salmonella Newport on food contact surface (0.5% with 0.0001% saponin microemulsion, Day 0, 316 SS): 4.30 Log CFU/mL | Survivors of Salmonella Newport on food contact surface (0.5% with 0.0001% saponin microemulsion, Day 0, Buna N): 4.23 Log CFU/mL | Survivors of Salmonella Newport on food contact surface (0.5% with 0.0001% saponin microemulsion, Day 0, HDPE): 4.27 Log CFU/mL | Survivors of Salmonella Newport on food contact surface (0.5% with 0.0001% saponin microemulsion, Day 0, PC): 4.06 Log CFU/mL | Survivors of Salmonella Newport on food contact surface (0.5% with 0.0001% saponin microemulsion, Day 0, PVC): 3.93 Log CFU/mL | Survivors of Salmonella Newport on food contact surface (0.5% with 0.0001% saponin microemulsion, Day 1, 304 SS): 4.45 Log CFU/mL | Survivors of Salmonella Newport on food contact surface (0.5% with 0.0001% saponin microemulsion, Day 1, 316 SS): 4.48 Log CFU/mL | Survivors of Salmonella Newport on food contact surface (0.5% with 0.0001% saponin microemulsion, Day 1, Buna N): 4.87 Log CFU/mL | Survivors of Salmonella Newport on food contact surface (0.5% with 0.0001% saponin microemulsion, Day 1, HDPE): 4.24 Log CFU/mL | Survivors of Salmonella Newport on food contact surface (0.5% with 0.0001% saponin microemulsion, Day 1, PC): 4.20 Log CFU/mL | Survivors of Salmonella Newport on food contact surface (0.5% with 0.0001% saponin microemulsion, Day 1, PVC): 4.36 Log CFU/mL | Survivors of Salmonella Newport on food contact surface (0.5% with 0.0001% saponin microemulsion, Day 3, 304 SS): 4.39 Log CFU/mL | Survivors of Salmonella Newport on food contact surface (0.5% with 0.0001% saponin microemulsion, Day 3, 316 SS): 4.26 Log CFU/mL | Survivors of Salmonella Newport on food contact surface (0.5% with 0.0001% saponin microemulsion, Day 3, Buna N): 4.34 Log CFU/mL | Survivors of Salmonella Newport on food contact surface (0.5% with 0.0001% saponin microemulsion, Day 3, HDPE): 3.24 Log CFU/mL | Survivors of Salmonella Newport on food contact surface (0.5% with 0.0001% saponin microemulsion, Day 3, PC): 3.75 Log CFU/mL | Survivors of Salmonella Newport on food contact surface (0.5% with 0.0001% saponin microemulsion, Day 3, PVC): 4.21 Log CFU/mL | Survivors of Salmonella Newport on food contact surface (0.7% with 0.0001% saponin microemulsion, Day 0, 304 SS): 4.0 Log CFU/mL | Survivors of Salmonella Newport on food contact surface (0.7% with 0.0001% saponin microemulsion, Day 0, 316 SS): 4.68 Log CFU/mL | Survivors of Salmonella Newport on food contact surface (0.7% with 0.0001% saponin microemulsion, Day 0, Buna N): 4.08 Log CFU/mL | Survivors of Salmonella Newport on food contact surface (0.7% with 0.0001% saponin microemulsion, Day 0, HDPE): 4.42 Log CFU/mL | Survivors of Salmonella Newport on food contact surface (0.7% with 0.0001% saponin microemulsion, Day 0, PC): 4.11 Log CFU/mL | Survivors of Salmonella Newport on food contact surface (0.7% with 0.0001% saponin microemulsion, Day 0, PVC): <1 Log CFU/mL | Survivors of Salmonella Newport on food contact surface (0.7% with 0.0001% saponin microemulsion, Day 1, 304 SS): 3.68 Log CFU/mL | Survivors of Salmonella Newport on food contact surface (0.7% with 0.0001% saponin microemulsion, Day 1, 316 SS): 3.0 Log CFU/mL | Survivors of Salmonella Newport on food contact surface (0.7% with 0.0001% saponin microemulsion, Day 1, Buna N): 3.24 Log CFU/mL | Survivors of Salmonella Newport on food contact surface (0.7% with 0.0001% saponin microemulsion, Day 1, HDPE): <1 Log CFU/mL | Survivors of Salmonella Newport on food contact surface (0.7% with 0.0001% saponin microemulsion, Day 1, PC): 3.29 Log CFU/mL | Survivors of Salmonella Newport on food contact surface (0.7% with 0.0001% saponin microemulsion, Day 1, PVC): <1 Log CFU/mL | Survivors of Salmonella Newport on food contact surface (0.7% with 0.0001% saponin microemulsion, Day 3, 304 SS): <1 Log CFU/mL | Survivors of Salmonella Newport on food contact surface (0.7% with 0.0001% saponin microemulsion, Day 3, 316 SS): <1 Log CFU/mL | Survivors of Salmonella Newport on food contact surface (0.7% with 0.0001% saponin microemulsion, Day 3, Buna N): <1 Log CFU/mL | Survivors of Salmonella Newport on food contact surface (0.7% with 0.0001% saponin microemulsion, Day 3, HDPE): <1 Log CFU/mL | Survivors of Salmonella Newport on food contact surface (0.7% with 0.0001% saponin microemulsion, Day 3, PC): <1 Log CFU/mL | Survivors of Salmonella Newport on food contact surface (0.7% with 0.0001% saponin microemulsion, Day 3, PVC): <1 Log CFU/mL | Survivors of Salmonella Newport on food contact surface (1% with 0.0001% saponin microemulsion, Day 0, 304 SS): <1 Log CFU/mL | Survivors of Salmonella Newport on food contact surface (1% with 0.0001% saponin microemulsion, Day 0, 316 SS): <1 Log CFU/mL | Survivors of Salmonella Newport on food contact surface (1% with 0.0001% saponin microemulsion, Day 0, Buna N): <1 Log CFU/mL | Survivors of Salmonella Newport on food contact surface (1% with 0.0001% saponin microemulsion, Day 0, HDPE): <1 Log CFU/mL | Survivors of Salmonella Newport on food contact surface (1% with 0.0001% saponin microemulsion, Day 0, PC): <1 Log CFU/mL | Survivors of Salmonella Newport on food contact surface (1% with 0.0001% saponin microemulsion, Day 0, PVC): <1 Log CFU/mL | Survivors of Salmonella Newport on food contact surface (1% with 0.0001% saponin microemulsion, Day 1, 304 SS): <1 Log CFU/mL | Survivors of Salmonella Newport on food contact surface (1% with 0.0001% saponin microemulsion, Day 1, 316 SS): <1 Log CFU/mL | Survivors of Salmonella Newport on food contact surface (1% with 0.0001% saponin microemulsion, Day 1, Buna N): <1 Log CFU/mL | Survivors of Salmonella Newport on food contact surface (1% with 0.0001% saponin microemulsion, Day 1, HDPE): <1 Log CFU/mL | Survivors of Salmonella Newport on food contact surface (1% with 0.0001% saponin microemulsion, Day 1, PC): <1 Log CFU/mL | Survivors of Salmonella Newport on food contact surface (1% with 0.0001% saponin microemulsion, Day 1, PVC): <1 Log CFU/mL | Survivors of Salmonella Newport on food contact surface (1% with 0.0001% saponin microemulsion, Day 3, 304 SS): <1 Log CFU/mL | Survivors of Salmonella Newport on food contact surface (1% with 0.0001% saponin microemulsion, Day 3, 316 SS): <1 Log CFU/mL | Survivors of Salmonella Newport on food contact surface (1% with 0.0001% saponin microemulsion, Day 3, Buna N): <1 Log CFU/mL | Survivors of Salmonella Newport on food contact surface (1% with 0.0001% saponin microemulsion, Day 3, HDPE): <1 Log CFU/mL | Survivors of Salmonella Newport on food contact surface (1% with 0.0001% saponin microemulsion, Day 3, PC): <1 Log CFU/mL | Survivors of Salmonella Newport on food contact surface (1% with 0.0001% saponin microemulsion, Day 3, PVC): <1 Log CFU/mL
